Values belong to the compound of their own block, whether it stands above or below them. Calls of active or inactive are those of the source. No cut-off for these calls is given here.
Experiments:
HepG2 = test: Cytotoxicity against human HepG2 cells measured after 72 hrs; assay type: functional, cell-based
[1] = GSH reactivity in pH 7.4 buffer assessed as GSH adduct formation by measuring half life at 50 uM by near-UV absorbance spectra analysis; assay type: physicochemical; conditions: pH 7.4, 50 µM
DOHH-2 [2] = test: Induction of apoptosis in human DOHH-2 cells assessed as increase in cleaved PARP expression at 10 uM measured after 4 to 24 hrs by Western blot analysis; assay type: functional, cell-based; conditions: time 4-24 hrs
DOHH-2 [3] = test: Up regulation of HSP70 expression in human DOHH-2 cells at 10 uM measured after 4 to 24 hrs by Western blot analysis; assay type: functional, cell-based; conditions: time 4-24 hrs
DOHH-2 [4] = test: Cytotoxicity against human DOHH-2 cells up to 20 uM measured after 24 hrs; assay type: functional, cell-based
Jurkat [5] = test: Cytotoxicity against human Jurkat T cells measured after 72 hrs; assay type: functional, cell-based
Homo sapiens [6] = organism: Homo sapiens; test: Binding affinity to ADP-bound full-length human HSP70 assessed as cysteine adduct formation at SBDalpha domain by measuring half life at 1 mM by fluorescence spectra analysis
DOHH-2 [7] = test: Induction of autophagy in human DOHH-2 cells assessed as reduction in p62 expression at 10 uM measured after 4 to 24 hrs by Western blot analysis; assay type: functional, cell-based; conditions: time 4-24 hrs
Homo sapiens [8] = organism: Homo sapiens; test: Binding affinity to human HSP70 SBDalpha domain (537 to 610 residues) C574S mutant assessed as Cys603 adduct formation by size exclusion chromatography
DOHH-2 [9] = test: Cytotoxicity against human DOHH-2 cells measured after 72 hrs; assay type: functional, cell-based
Homo sapiens [10] = organism: Homo sapiens; test: Binding affinity to ADP-bound full-length human HSP70 assessed as Cys603 adduct formation by size exclusion chromatography
HEK-293T = test: Cytotoxicity against HEK293T cells up to 20 uM measured after 24 hrs; assay type: toxicity, cell-based; conditions: human
DOHH-2 [11] = test: Induction of autophagy in human DOHH-2 cells assessed as change in transformation of LC3B1 to LC3B2 expression at 0.5 to 10 uM measured after 24 hrs by Western blot analysis; assay type: functional, cell-based; conditions: dose 0.5-10 µM
MDA-MB-453 = test: Cytotoxicity against human MDA-MB-453 cells measured after 72 hrs; assay type: functional, cell-based
DOHH-2 [12] = test: Up regulation of HSP90alpha expression in human DOHH-2 cells at 10 uM measured after 4 to 24 hrs by Western blot analysis; assay type: functional, cell-based; conditions: time 4-24 hrs
DOHH-2 [13] = test: Induction of apoptosis in human DOHH-2 cells assessed as increase in cleaved PARP expression at 0.5 to 10 uM measured after 24 hrs by Western blot analysis; assay type: functional, cell-based; conditions: dose 0.5-10 µM
DOHH-2 [14] = test: Induction of apoptosis in human DOHH-2 cells assessed as increase in cleaved caspase-3 expression at 0.5 to 10 uM measured after 24 hrs by Western blot analysis; assay type: functional, cell-based; conditions: dose 0.5-10 µM
DOHH-2 [15] = test: Induction of apoptosis in human DOHH-2 cells assessed as increase in cleaved caspase-3 expression at 10 uM measured after 4 to 24 hrs by Western blot analysis; assay type: functional, cell-based; conditions: time 4-24 hrs
DOHH-2 [16] = test: Up regulation of HSP90alpha expression in human DOHH-2 cells at 0.5 to 10 uM measured after 24 hrs by Western blot analysis; assay type: functional, cell-based; conditions: dose 0.5-10 µM
DOHH-2 [17] = test: Induction of autophagy in human DOHH-2 cells assessed as change in transformation of LC3B1 to LC3B2 expression at 10 uM measured after 4 to 24 hrs by Western blot analysis; assay type: functional, cell-based; conditions: time 4-24 hrs
Jurkat [18] = test: Cytotoxicity against human Jurkat T cells up to 20 uM measured after 24 hrs; assay type: functional, cell-based
DOHH-2 [19] = test: Up regulation of HSP70 expression in human DOHH-2 cells at 0.5 to 10 uM measured after 24 hrs by Western blot analysis; assay type: functional, cell-based; conditions: dose 0.5-10 µM
DOHH-2 [20] = test: Induction of autophagy in human DOHH-2 cells assessed as reduction in p62 expression at 0.5 to 10 uM measured after 24 hrs by Western blot analysis; assay type: functional, cell-based; conditions: dose 0.5-10 µM
DOHH-2 [21] = test: Induction of autophagy in human DOHH-2 cells assessed as change in transformation of LC3B1 to LC3B2 expression at 0.5 to 12 uM measured after 24 hrs by Western blot analysis; assay type: functional, cell-based; conditions: dose 0.5-12 µM
DOHH-2 [22] = test: Induction of apoptosis in human DOHH-2 cells assessed as increase in cleaved caspase-3 expression at 12 uM measured after 4 to 24 hrs by Western blot analysis; assay type: functional, cell-based; conditions: time 4-24 hrs
DOHH-2 [23] = test: Induction of autophagy in human DOHH-2 cells assessed as reduction in p62 expression at 12 uM measured after 4 to 24 hrs by Western blot analysis; assay type: functional, cell-based; conditions: time 4-24 hrs
[24] = GSH reactivity in pH 7.4 buffer assessed as GSH adduct formation by measuring molecular weight at 1 mM by Q-TOF LC/MS analysis; assay type: physicochemical; conditions: pH 7.4, 1000 µM
DOHH-2 [25] = test: Induction of apoptosis in human DOHH-2 cells assessed as increase in cleaved PARP expression at 0.5 to 12 uM measured after 24 hrs by Western blot analysis; assay type: functional, cell-based; conditions: dose 0.5-12 µM
DOHH-2 [26] = test: Up regulation of HSP70 expression in human DOHH-2 cells at 0.5 to 12 uM measured after 24 hrs by Western blot analysis; assay type: functional, cell-based; conditions: dose 0.5-12 µM
DOHH-2 [27] = test: Up regulation of HSP90alpha expression in human DOHH-2 cells at 12 uM measured after 4 to 24 hrs by Western blot analysis; assay type: functional, cell-based; conditions: time 4-24 hrs
DOHH-2 [28] = test: Up regulation of HSP90alpha expression in human DOHH-2 cells at 0.5 to 12 uM measured after 24 hrs by Western blot analysis; assay type: functional, cell-based; conditions: dose 0.5-12 µM
DOHH-2 [29] = test: Induction of autophagy in human DOHH-2 cells assessed as reduction in p62 expression at 0.5 to 12 uM measured after 24 hrs by Western blot analysis; assay type: functional, cell-based; conditions: dose 0.5-12 µM
DOHH-2 [30] = test: Induction of apoptosis in human DOHH-2 cells assessed as increase in cleaved caspase-3 expression at 0.5 to 12 uM measured after 24 hrs by Western blot analysis; assay type: functional, cell-based; conditions: dose 0.5-12 µM
DOHH-2 [31] = test: Induction of autophagy in human DOHH-2 cells assessed as change in transformation of LC3B1 to LC3B2 expression at 12 uM measured after 4 to 24 hrs by Western blot analysis; assay type: functional, cell-based; conditions: time 4-24 hrs
DOHH-2 [32] = test: Up regulation of HSP70 expression in human DOHH-2 cells at 12 uM measured after 4 to 24 hrs by Western blot analysis; assay type: functional, cell-based; conditions: time 4-24 hrs
DOHH-2 [33] = test: Induction of apoptosis in human DOHH-2 cells assessed as increase in cleaved PARP expression at 12 uM measured after 4 to 24 hrs by Western blot analysis; assay type: functional, cell-based; conditions: time 4-24 hrs
[34] = GSH reactivity in pH 7.4 buffer assessed as GSH adduct formation at 1 mM by HPLC analysis; assay type: physicochemical; conditions: pH 7.4, 1000 µM

- t1/2 [1]: 2.97 min
- T1/2 (Homo sapiens [6]): 59.9 min
- Activity (Homo sapiens [8]): Active
- Activity (Homo sapiens [10]): Active
SMILES: NS(=O)(=O)C#Cc1cccc(Cl)c1
- Activity (HepG2): Active
- Activity (DOHH-2 [2]): Active
- Activity (DOHH-2 [3]): Active
- Activity (DOHH-2 [4]): Active
- Activity (Jurkat [5]): Active
- Activity (DOHH-2 [7]): Active
- Activity (DOHH-2 [9]): Active
- Activity (HEK-293T): Non-Toxic
- Activity (DOHH-2 [11]): Active
- Activity (MDA-MB-453): Active
- Activity (DOHH-2 [12]): Active
- Activity (DOHH-2 [13]): Active
- Activity (DOHH-2 [14]): Active
- Activity (DOHH-2 [15]): Active
- Activity (DOHH-2 [16]): Active
- Activity (DOHH-2 [17]): Active
- Activity (Jurkat [18]): Active
- Activity (DOHH-2 [19]): Active
- Activity (DOHH-2 [20]): Active

- t1/2 [1]: 12.26 min
- Activity [24]: 489 Da
- T1/2 (Homo sapiens [6]): 272 min
- Activity (Homo sapiens [8]): Active
- Activity (Homo sapiens [10]): Active
- Activity [34]: Active
SMILES: NS(=O)(=O)C#Cc1ccccc1
- Activity (HepG2): Active
- Activity (DOHH-2 [21]): Active
- Activity (DOHH-2 [22]): Active
- Activity (DOHH-2 [23]): Active
- Activity (DOHH-2 [4]): Active
- Activity (Jurkat [5]): Active
- Activity (DOHH-2 [25]): Active
- Activity (DOHH-2 [26]): Active
- Activity (DOHH-2 [27]): Active
- Activity (DOHH-2 [9]): Active
- Activity (HEK-293T): Non-Toxic
- Activity (DOHH-2 [28]): Active
- Activity (DOHH-2 [29]): Active
- Activity (MDA-MB-453): Active
- Activity (DOHH-2 [30]): Active
- Activity (DOHH-2 [31]): Active
- Activity (Jurkat [18]): Active
- Activity (DOHH-2 [32]): Active
- Activity (DOHH-2 [33]): Active

Source: ChEMBL document CHEMBL5143564, “PES derivative PESA is a potent tool to globally profile cellular targets of PES” (Bioorg Med Chem Lett, 2022)
